For 14 compounds, IC50 results are on record in patent US20230143612A1 (Arbutus Biopharma Corporation, priority 2020, published 2023).

Broadly, the IC50 is the concentration needed to halve the response being measured. A higher IC50 goes with a need for much substance.

This experiment deals with PD-L1 His protein / PD-1 Fc protein (Homo sapiens, UniProt Q9NZQ7). Nature of the experiment: HTRF Assay (PD-1/PD-L1 interaction). The class given is binding. To be noted: PD-L1 His 6 nM, PD-1 Fc 6 nM. A digest of the protocol: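 Compounds tested from 20 μM down to 0.001 μM (3-fold) against 6 nM PD-L1 His and 6 nM PD-1 Fc, 15 min room temperature incubation. Detection after 1 h at room temperature with Tb cryptate anti-6HIS and XL665 anti-human IgG reagents (mixture at 0.35 nM and 6.7 nM), HTRF signal.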
Sequence of PD-L1 His protein / PD-1 Fc protein (Q9NZQ7 19-238 limits assumed): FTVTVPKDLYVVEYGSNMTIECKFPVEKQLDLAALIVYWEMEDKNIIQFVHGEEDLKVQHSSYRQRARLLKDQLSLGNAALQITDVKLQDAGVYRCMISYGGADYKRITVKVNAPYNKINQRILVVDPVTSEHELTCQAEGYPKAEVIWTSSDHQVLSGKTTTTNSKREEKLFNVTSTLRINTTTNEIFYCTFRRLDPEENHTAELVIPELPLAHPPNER
(In TR-FRET formats the signal depends on donor and acceptor labels being close together.)
Turning to `COc1cc(-c2cccc(-c3cccc(-c4ccc(CNC[C@@H]5CCC(=O)N5)c(OC)n4)c3Cl)c2Cl)cc2c1CCN(C[C@@H]1CCC(=O)N1)C2` [Example 424, (S)-5-((((6-(2,2′-Dichloro-3′-(5-methoxy-2-(((S)-5-oxopyrrolidin-2-yl)methyl)-1,2,3,4-tetrahydroisoquinolin-7-yl)-[1,1′-biphenyl]-3-yl)-2-methoxypyridin-3-yl)methyl)amino)methyl)pyrrolidin-2-one], the IC50 was determined as 27 nM.
On to `O=C1CC[C@@H](CNCc2cnc3cc(-c4cccc(-c5cccc(-c6cnc7c(CNC[C@@H]8CCC(=O)N8)cnn7c6)c5Cl)c4Cl)ccn3c2=O)N1` [Example 381, 8-(2,2′-dichloro-3′-(3-(((((S)-5-oxopyrrolidin-2-yl)methyl)amino)methyl)pyrazolo[1,5-a]pyrimidin-6-yl)-[1,1′-biphenyl]-3-yl)-3-(((((S)-5-oxopyrrolidin-2-yl)methyl)amino)methyl)-4H-pyrido[1,2-a]pyrimidin-4-one], for which the midpoint of inhibition, the IC50, lay at 5.9 nM.
For the compound `COc1cc(-c2cccc(-c3cccc(-c4ccn5c(=O)c(CNC[C@@H]6CCC(=O)N6)cnc5c4)c3C)c2Cl)ncc1CNC[C@@H]1CCC(=O)N1` [Example 77, 8-[3-[2-Chloro-3-[4-methoxy-5-[[[(2S)-5-oxopyrrolidin-2-yl]methylamino]methyl]-2-pyridyl]phenyl]-2-methyl-phenyl]-3-[[[(2S)-5-oxopyrrolidin-2-yl]methylamino]methyl]pyrido[1,2-a]pyrimidin-4-one], the IC50 stood at 6.3 nM.
In turn, `Cc1c(COc2cc(OCc3cncc(C#N)c3)c(CNC[C@H]3CCC(=O)N3)cc2Cl)cccc1-c1cccc(-c2ccn3c(=O)c(CNC[C@H]4CCC(=O)N4)ccc3c2)c1C` [Example 28, 5-((4-Chloro-5-((2,2′-dimethyl-3′-(4-oxo-3-(((((R)-5-oxopyrrolidin-2-yl)methyl)amino)methyl)-4H-quinolizin-8-yl)-[1,1′-biphenyl]-3-yl)methoxy)-2-(((((R)-5-oxopyrrolidin-2-yl)methyl)amino)methyl)phenoxy)methyl)nicotinonitrile] returned an IC50 of 0.7 nM.
In the case of `COc1nc(-c2cccc(-c3cccc(-c4cc5c(=O)n(C)c(CNCCC(F)F)nn5c4)c3Cl)c2Cl)ccc1CNC[C@@H]1CCC(=O)N1` [compound 465, (S)-6-(2,2′-Dichloro-3′-(6-methoxy-5-((((5-oxopyrrolidin-2-yl)methyl)amino)methyl)pyridin-2-yl)-[1,1′-biphenyl]-3-yl)-2-(((3,3-difluoropropyl)amino)methyl)-3-methylpyrrolo[2,1-f][1,2,4]triazin-4(3H)-one] it was 14 nM; in that of `COc1nc(-c2cccc(-c3cccc(-c4cnc5sc(N6CCN(CCO)CC6)nn45)c3Cl)c2Cl)ccc1CNC[C@@H]1CCC(=O)N1` [Example 241, (S)-5-((((6-(2,2′-Dichloro-3′-(2-(4-(2-hydroxyethyl)piperazin-1-yl)imidazo[2,1-b][1,3,4]thiadiazol-5-yl)-[1,1′-biphenyl]-3-yl)-2-methoxypyridin-3-yl)methyl)amino)methyl)pyrrolidin-2-one], 900 nM; in that of `COc1nc(-c2cccc(-c3cccc(-c4ccc5nn(CCO)c(=O)n5c4)c3Cl)c2Cl)ccc1CNC[C@@H]1CCC(=O)N1` [Example 239, (S)-6-(2,2′-Dichloro-3′-(6-methoxy-5-((((5-oxopyrrolidin-2-yl)methyl)amino)methyl)pyridin-2-yl)-[1,1′-biphenyl]-3-yl)-2-(2-hydroxyethyl)-[1,2,4]triazolo[4,3-a]pyridin-3(2H)-one], 0.1 nM.
For `COc1nc(-c2cccc(-c3cccc(-c4ccn5c(=O)c(CN6CC(C(C)(C)O)C6)cnc5c4)c3Cl)c2Cl)ccc1CNC[C@@H]1CCC(=O)N1` [Example 111, (S)-8-(2,2′-Dichloro-3′-(6-methoxy-5-((((5-oxopyrrolidin-2-yl)methyl)amino)methyl)pyridin-2-yl)-[1,1′-biphenyl]-3-yl)-3-((3-(2-hydroxypropan-2-yl)azetidin-1-yl)methyl)-4H-pyrido[1,2-a]pyrimidin-4-one] the value was 6.5 nM; for `COc1nc(-c2cccc(-c3cccc(-c4ccn5c(=O)c(CN6C[C@H](O)C[C@H]6C(=O)O)cnc5c4)c3Cl)c2Cl)ccc1CNC[C@@H]1CCC(=O)N1` [Example 166, (2S,4R)-1-((8-(2,2′-Dichloro-3′-(6-methoxy-5-(((((S)-5-oxopyrrolidin-2-yl)methyl)amino)methyl)pyridin-2-yl)-[1,1′-biphenyl]-3-yl)-4-oxo-4H-pyrido[1,2-a]pyrimidin-3-yl)methyl)-4-hydroxypyrrolidine-2-carboxylic acid], 0.1 nM; for `COc1nc(-c2cccc(-c3cccc(-c4cc5c(=O)n(C)c(CN(C)C[C@H](C)O)nn5c4)c3Cl)c2Cl)ccc1CNC[C@@H]1CCC(=O)N1` [Example 436, 6-(2,2′-dichloro-3′-(6-methoxy-5-(((((S)-5-oxopyrrolidin-2-yl)methyl)amino)methyl)pyridin-2-yl)-[1,1′-biphenyl]-3-yl)-2-((((S)-2-hydroxypropyl)(methyl)amino)methyl)-3-methylpyrrolo[2,1-f][1,2,4]triazin-4(3H)-one], 26 nM.
In the case of `COc1nc(-c2cccc(-c3cccc(-c4ccn5c(=O)c(CN6CCCC[C@H]6C(=O)O)cnc5c4)c3Cl)c2Cl)ccc1CNC[C@@H]1CCC(=O)N1` [Example 129, (S)-1-((8-(2,2′-Dichloro-3′-(6-methoxy-5-(((((S)-5-oxopyrrolidin-2-yl)methyl)amino)methyl)pyridin-2-yl)-[1,1′-biphenyl]-3-yl)-4-oxo-4H-pyrido[1,2-a]pyrimidin-3-yl)methyl)piperidine-2-carboxylic acid] it was 0.3 nM.
The compound `COc1nc(-c2cccc(-c3cccc(-c4ccn5c(=O)c(CNCC67CCC(C6)C(=O)N7)cnc5c4)c3Cl)c2Cl)ccc1CNC[C@@H]1CCC(=O)N1` (stereo partly drawn) [Example 252, 8-[2-Chloro-3-[2-chloro-3-[6-methoxy-5-[[[(2S)-5-oxopyrrolidin-2-yl]methylamino]methyl]-2-pyridyl]phenyl]phenyl]-3-[[(3-oxo-2-azabicyclo[2.2.1]heptan-1-yl)methylamino]methyl]pyrido[1,2-a]pyrimidin-4-one] yielded an IC50 of 4.7 nM.
For the compound `CSc1nc(-c2cccc(-c3cccc(-c4ccn5c(=O)c(CNC[C@@H]6CCC(=O)N6)cnc5c4)c3Cl)c2Cl)ccc1CNC[C@@H]1CCC(=O)N1` [Example 108, 8-(2,2′-Dichloro-3′-(6-(methylthio)-5-(((((S)-5-oxopyrrolidin-2-yl)methyl)amino)methyl)pyridin-2-yl)-[1,1′-biphenyl]-3-yl)-3-(((((S)-5-oxopyrrolidin-2-yl)methyl)amino)methyl)-4H-pyrido[1,2-a]pyrimidin-4-one], 1 nM corresponded to half-maximal inhibition (IC50).
Compound `COc1c(CNC[C@@H]2CCC(=O)N2)ccc2nc(-c3cccc(-c4cccc(-c5ccn6c(=O)c(CNC[C@@H]7CCC(=O)N7)cnc6c5)c4Cl)c3Cl)ccc12` [Example 176, 8-(2,2′-Dichloro-3′-(5-methoxy-6-(((((S)-5-oxopyrrolidin-2-yl)methyl)amino)methyl)quinolin-2-yl)-[1,1′-biphenyl]-3-yl)-3-(((((S)-5-oxopyrrolidin-2-yl)methyl)amino)methyl)-4H-pyrido[1,2-a]pyrimidin-4-one] had an IC50 of 250 nM.
